According to ChEMBL document CHEMBL3885861, “Open TG-GATES”:

Species on record: Rattus norvegicus
Experiment: Open TG-GATES - Regimen: Single
Format: toxicity, organism-based, Sprague-Dawley
Set-up: regimen Single, gender Male, age 6 weeks
Conditions: in vivo, ip, 0 mg/kg, route intraperitoneal injection, dose 0 ug/Kg, dose level Control; for APTT / Bas / Eos / Fbg / Hb / Ht / Lym / MCH / MCHC / MCV / Mono / Neu / PT / Plat / RBC / Ret / WBC: tissue Blood; for KIDNEY_L / KIDNEY_R / KIDNEY_TOTAL: tissue Kidney; for LIVER: tissue Liver; for A/G / ALP / ALT / AST / BUN / CRE / Ca / Cl / DBIL / GLC / IP / K / LDH / Na / PL / RALB / TBIL / TC / TG / TP / gamma-GTP: tissue Plasma

## H-KGDRLS-OH [TNF-ALPHA]
3 h
  TERMINAL_BW: 200.6 g
  APTT: 20 s
  Bas: 0.4%
  Eos: 0.8%
  Fbg: 268.8 mg/dL
  Hb: 13 g/dL
  Ht: 40.3%
  Lym: 73.8%
  MCH: 21.6 pg
  MCHC: 32.3%
  MCV: 66.8 fL
  Mono: 3.8%
  Neu: 19.8%
  PT: 15.4 s
  Plat: 101.9 x10_4/uL
  RBC: 603.2 x10_4/ul
  Ret: 9.3%
  WBC: 95.8 x10_2/uL
  KIDNEY_L: 0.9 g
  KIDNEY_R: 0.9 g
  KIDNEY_TOTAL: 1.7 g
  LIVER: 9.3 g
  A/G: 0.9
  ALP: 1391 IU/L
  ALT: 43 IU/L
  AST: 74.8 IU/L
  BUN: 10.8 mg/dL
  CRE: 0.2 mg/dL
  Ca: 10.8 mg/dL
  Cl: 105.2 meq/L
  DBIL: 0.012 mg/dL
  GLC: 173.4 mg/dL
  IP: 9.6 mg/dL
  K: 4.1 meq/L
  LDH: 73.2 IU/L
  Na: 142.2 meq/L
  PL: 149.2 mg/dL
  RALB: 2.4 g/dL
  TBIL: 0.06 mg/dL
  TC: 79.8 mg/dL
  TG: 61.2 mg/dL
  TP: 5.3 g/dL
  gamma-GTP: 1.2 IU/L
6 h
  TERMINAL_BW: 199.4 g
  APTT: 16.7 s
  Bas: 0%
  Eos: 0.2%
  Fbg: 285 mg/dL
  Hb: 13.1 g/dL
  Ht: 40%
  Lym: 68.8%
  MCH: 21.3 pg
  MCHC: 32.6%
  MCV: 65.1 fL
  Mono: 2.8%
  Neu: 26.8%
  PT: 15.6 s
  Plat: 109.7 x10_4/uL
  RBC: 615.4 x10_4/ul
  Ret: 8.8%
  WBC: 77.4 x10_2/uL
  KIDNEY_L: 0.9 g
  KIDNEY_R: 0.9 g
  KIDNEY_TOTAL: 1.9 g
  LIVER: 8.5 g
  A/G: 0.9
  ALP: 1347.2 IU/L
  ALT: 40 IU/L
  AST: 73.6 IU/L
  BUN: 9.4 mg/dL
  CRE: 0.2 mg/dL
  Ca: 10.8 mg/dL
  Cl: 105 meq/L
  DBIL: 0.01 mg/dL
  GLC: 179.6 mg/dL
  IP: 10.1 mg/dL
  K: 4 meq/L
  LDH: 58.8 IU/L
  Na: 142.8 meq/L
  PL: 146.4 mg/dL
  RALB: 2.5 g/dL
  TBIL: 0.058 mg/dL
  TC: 78.8 mg/dL
  TG: 44 mg/dL
  TP: 5.3 g/dL
  gamma-GTP: 1.4 IU/L
9 h
  TERMINAL_BW: 195.6 g
  APTT: 18 s
  Bas: 0.4%
  Eos: 0.4%
  Fbg: 305 mg/dL
  Hb: 13.1 g/dL
  Ht: 40.5%
  Lym: 68.4%
  MCH: 20.9 pg
  MCHC: 32.5%
  MCV: 64.2 fL
  Mono: 1.6%
  Neu: 28.6%
  PT: 15.4 s
  Plat: 118.6 x10_4/uL
  RBC: 631 x10_4/ul
  Ret: 8.6%
  WBC: 77.2 x10_2/uL
  KIDNEY_L: 0.9 g
  KIDNEY_R: 0.9 g
  KIDNEY_TOTAL: 1.9 g
  LIVER: 8.2 g
  A/G: 0.9
  ALP: 1246.8 IU/L
  ALT: 42.6 IU/L
  AST: 81.6 IU/L
  BUN: 7.6 mg/dL
  CRE: 0.1 mg/dL
  Ca: 10.4 mg/dL
  Cl: 105.4 meq/L
  DBIL: 0.004 mg/dL
  GLC: 167.4 mg/dL
  IP: 9.9 mg/dL
  K: 3.5 meq/L
  LDH: 61.4 IU/L
  Na: 143.4 meq/L
  PL: 135.8 mg/dL
  RALB: 2.5 g/dL
  TBIL: 0.058 mg/dL
  TC: 74 mg/dL
  TG: 33.6 mg/dL
  TP: 5.4 g/dL
  gamma-GTP: 1.2 IU/L
24 h
  TERMINAL_BW: 211.3 g
  APTT: 17.6 s
  Bas: 0%
  Eos: 1%
  Fbg: 302 mg/dL
  Hb: 13.3 g/dL
  Ht: 40.5%
  Lym: 78%
  MCH: 21 pg
  MCHC: 32.8%
  MCV: 64 fL
  Mono: 2.8%
  Neu: 17%
  PT: 15.1 s
  Plat: 115.6 x10_4/uL
  RBC: 634 x10_4/ul
  Ret: 8.1%
  WBC: 80.3 x10_2/uL
  KIDNEY_L: 0.9 g
  KIDNEY_R: 0.9 g
  KIDNEY_TOTAL: 1.8 g
  LIVER: 10.2 g
  A/G: 0.8
  ALP: 1555.2 IU/L
  ALT: 49 IU/L
  AST: 69.8 IU/L
  BUN: 14.8 mg/dL
  CRE: 0.2 mg/dL
  Ca: 11 mg/dL
  Cl: 105.8 meq/L
  DBIL: 0.008 mg/dL
  GLC: 184.2 mg/dL
  IP: 9.1 mg/dL
  K: 4.2 meq/L
  LDH: 76.2 IU/L
  Na: 142 meq/L
  PL: 172.2 mg/dL
  RALB: 2.6 g/dL
  TBIL: 0.038 mg/dL
  TC: 93.2 mg/dL
  TG: 98.2 mg/dL
  TP: 5.6 g/dL
  gamma-GTP: 1 IU/L
